From US20210078958A1, “QUINAZOLINE DERIVATIVE AND USE THEREOF” (MEDSHINE DISCOVERY INC., priority 2017, published 2021) come the findings set out here.

Structures are written as SMILES.

The test system of experiment [1] is BT-474 cell. As to the kind of experiment: inhibitory activity on cell proliferation (Cell-Titer-Glo), BT-474. In kind it is cell-based. The conditions noted are these: Homo sapiens, BT-474, 72 h; incubation for 3 days, Cell-Titer-Glo. From the text:
Purpose of the assay: to detect the inhibitory activity of the test compounds on cell proliferation.
Principle of the assay: the luciferase in a Cell-Titer-Glo reagent produces oxidized luciferin with luciferin, oxygen and ATP as reaction substrates, and releases energy in the form of light. Since the luciferase reaction requires ATP, the total amount of light generated by the reaction is proportional to the total amount of ATP that reflects cell viability.
Cell Titer-Glo cell viability assay kit with luminescence (Promega #G7573)
According to the schematic diagram of the cell seed plate, cells were seeded in a 384- or 96-well plate at a density of 1000 cells per well and 25 μL per well, and 25 μL of PBS was added to the wells near edge of the place where no cells were seeded.
(1) The stock solution of the compounds has a concentration of 10 mM, and the compounds were diluted with DMSO to an initial concentration of 4 mM. The compounds were added to the plate with stock solution of compounds, 9 μL per well.
(2) The compounds were diluted with an ECHO liquid workstation, where 125 nL of compounds were added to each well of the cell plate, 125 nL of DMSO was added to each of the cell well in columns 2 and 23, and 125 nL of DMSO was added to each PBS well in columns 1 and 24.
2.3 After addition of the compounds, the cell plate was centrifuged at 1000 rpm for 1 min, and then placed in a 37° C., 5% CO2 incubator for incubation for 3 days.
The cell plate was taken out from the incubator and equilibrated at room temperature for 30 minutes. 25 μL of Cell-Titer-Glo reagent was added to each well, shaken for one minute to allow well mixed, and centrifuged at 1000 rpm for 1 minute. After 10 minutes, the plate was read on PerkinElmer Envision, and the […] reading time was set to 0.2 second.

Experiment [2] deals with subcutaneous xenograft tumor of human gastric cancer NCI-N87 cells. Put plainly: Assay Example 4: in vivo pharmacodynamics, NCI-N87 xenograft. Also on record: species or system BALB/c nude mouse. The conditions noted are these: for Tumor volume (mm3) (Day 28): NCI-N87 xenograft, Mean + SEM; for T/C (%) / TGI (%): day 28. As to the method: (§1) Purpose of the assay: to evaluate the in vivo efficacy of test compounds disclosed herein on subcutaneous xenograft tumor of human gastric cancer NCI-N87 cells in a BALB/c nude mouse model.
Animals of the assay: female BALB/c nude mice, 6-8 weeks old, weighted 18-22 grams; supplier: Shanghai Ling Chang Biotechnology Co., Ltd.
Human gastric cancer NCI-N87 cells were cultured in monolayer in vitro. The culture conditions were RPMI-1640 medium plus 10% fetal bovine serum, 100 U/mL penicillin, 100 U/mL streptomycin and 2 mM glutamine, 37° C., 5% CO2. The passaging was performed by conventional digestion with trypsin-EDTA twice a week. When the cell saturation was 80%-90%, the cells were collected, counted and inoculated.
0.2 mL (10×10^6) of NCI-N87 cells (PBS+Matrigel, 1:1) were inoculated subcutaneously on the right back of each mouse. When the average tumor volume reached 158 mm^3, administration to each group was started.
The test compounds were formulated into a 0.04 mg/mL and 0.08 mg/mL clear solution in and the solvents of 10% NMP (N-methylpyrrolidone)+10% ethylene glycol stearate+80% water.
(§2) The assay index is to investigate whether tumor growth is inhibited, delayed or cured. Tumor diameter was measured twice a week with a vernier caliper. The calculation formula of tumor volume is: V=0.5a×b^2, wherein a and b represent the long and short diameters of tumor, respectively.
(§3) The antitumor efficacy of the compounds were evaluated by TGI (%) or tumor proliferation rate T/C (%). TGI (%) reflects the tumor growth inhibition rate. TGI (%) is calculated as follows: TGI (%)=[1−(average tumor volume at the end of administration for a certain treatment group−average tumor volume at the beginning of administration for this treatment group)/(average tumor volume at the end of treatment for a solvent control group−average tumor volume at the beginning of administration for this solvent control group)]×100%.
(§4) Tumor proliferation rate T/C (%): the calculation formula is as follows: T/C (%)=average tumor volume at the end of administration for a certain treatment group/average tumor volume at the end of treatment for the solvent control group×100%.
(§5) Statistical analysis included the mean and standard error (SEM) of tumor volume at each time point in each group (See Table 5-1 for specific data). […] The comparison between two groups was analyzed by T-test, and the comparison among three or more groups was analyzed by one-way ANOVA. […] All data analysis was carried out with SPSS 17.0. p<0.05 was considered a significant difference.

For experiment [3] the test system is unchanged. As to the kind of experiment: Assay Example 5: in vivo pharmacodynamics, NCI-N87 xenograft. Also on record: species or system BALB/c nude mouse. The conditions noted are these: 0.5 mg/kg. As to the method: as §1
Animals of the assay: female BALB/c nude mice, 6-8 weeks old, weighing 18-22 grams; supplier: shanghai sippr bk laboratory animals Ltd.
Human gastric cancer NCI-N87 cells were cultured in monolayer in vitro. The culture conditions were RPMI-1640 medium plus 10% fetal bovine serum, 100 U/mL penicillin, 100 μg/mL streptomycin, 37° C., 5% CO2. The passaging was performed by conventional digestion with trypsin-EDTA twice a week. When the cell saturation was 80%-90%, the cells were collected, counted and inoculated.
0.2 mL (10×10^6) of NCI-N87 cells (PBS+Matrigel, 1:1) were inoculated subcutaneously on the right back of each mouse. When the average tumor volume reached 156 mm^3, administration to each group was started.
The test compounds were formulated into a 0.05 mg/mL clear solution in the solvents of 10% NMP (N-methylpyrrolidone)+10% ethylene glycol stearate+80% water.
as §2, §3, §4, §5

For `C=CC(=O)N1[C@@H]2CC[C@H]1C[C@H](Oc1cc3c(Nc4ccc(Cl)c(Cl)c4F)ncnc3cc1OC)C2` [Example 8], in experiment [1], 0.39 nM corresponded to half-maximal inhibition (IC50).
Regarding `C=CC(=O)N1[C@@H]2CC[C@H]1C[C@H](Nc1cc3c(Nc4ccc(Cl)c(Cl)c4F)ncnc3cc1OC)C2` [Example 38], the “Tumor volume (mm3) (Day 28)” value is 47 ± 13 mm3 in experiment [2] (0.4 mg/kg) and 15 ± 3 mm3 in experiment [2] (0.8 mg/kg). The entries for the “T/C (%)” value in experiment [2] (0.4 mg/kg), in experiment [2] (0.8 mg/kg) and in experiment [3] (day 21) were 7.51%, 2.40% and 10.69%, respectively. The figures for the “TGI (%)” value in experiment [2] (0.4 mg/kg), in experiment [2] (0.8 mg/kg) and in experiment [3] (day 21) were 123.72%, 130.56% and 119.41%, respectively. The “Tumor volume (mm^3) (Day 21)” value in experiment [3] (NCI-N87 xenograft, Mean + SEM) was found to be 63 ± 10 mm^3.
For `C=CC(=O)N1CCC(Oc2cc3c(Nc4ccc(Cl)c(Cl)c4F)ncnc3cc2OC)CC1` [Poziotinib, reference compound], in experiment [2] (0.4 mg/kg), the “Tumor volume (mm3) (Day 28)” value turned out to be 84 ± 9 mm3, the “T/C (%)” value stood at 13.42% and the “TGI (%)” value is 115.81%. In addition, in experiment [2] (0.8 mg/kg), the “Tumor volume (mm3) (Day 28)” value was found to be 28 ± 8 mm3, the “T/C (%)” value is listed as 4.47% and the “TGI (%)” value came out at 127.78%.
